For one data set, the system named is Enterococcus faecalis. Description: Antibacterial activity against Enterococcus faecalis incubated for 16 to 24 hrs by broth microdilution based spectrophotometric analysis. Format: functional, organism-based. (Dilution methods test growth across graded concentrations, often in twofold steps.)
Data set [1] has as its system Staphylococcus aureus. Description: Antibacterial activity against methicillin-resistant Staphylococcus aureus ATCC 43300 incubated for 16 to 24 hrs by broth microdilution based spectrophotometric analysis. Format: functional, organism-based.
Data set [2] concerns Staphylococcus aureus. Put plainly: Antibacterial activity against methicillin-resistant Staphylococcus aureus ATCC 33591 incubated for 16 to 24 hrs by broth microdilution based spectrophotometric analysis. Format: functional, organism-based.
Data set [3] relates to Staphylococcus aureus. Put plainly: Antibacterial activity against Staphylococcus aureus ATCC 25923 incubated for 16 to 24 hrs by broth microdilution based spectrophotometric analysis. In kind it is functional, organism-based.
The test system of the next data set is Enterococcus faecium. Put plainly: Antibacterial activity against vancomycin-resistant Enterococcus faecium incubated for 16 to 24 hrs by broth microdilution based spectrophotometric analysis. In kind it is functional, organism-based.
Data set [4] in a line: Cytotoxicity against human SW-620 cells and measured after 48 hrs by MTT assay. In kind it is toxicity, cell-based.
In another data set the test system is Escherichia coli. Description: Antibacterial activity against Escherichia coli ATCC 11775 incubated for 16 to 24 hrs by broth microdilution based spectrophotometric analysis. In kind it is functional, organism-based.
Data set [5] can be described thus: Cytotoxicity against human NCI-H460 cells and measured after 48 hrs by MTT assay. Format: toxicity, cell-based. Background: Tetrazolium assays rely on reduction of a dye to a coloured formazan, in cell work by metabolically active cells.
Data set [6] relates to Mycobacterium tuberculosis. Put plainly: Antibacterial activity against Mycobacterium tuberculosis H37Ra ATCC 25177 incubated for 16 to 24 hrs by broth microdilution based spectrophotometric analysis. Format: functional, organism-based.
The test system of the next data set is Candida albicans. Put plainly: Antifungal activity against Candida albicans ATCC 10231 incubated for 16 to 24 hrs by broth microdilution based spectrophotometric analysis. In kind it is functional, organism-based.

A word on the IC50: it is the concentration that inhibits the measured activity by half. `CCCCC(=O)O[C@H]1CC[C@H](C)[C@@H]2[C@@H]1C=C(C)[C@H]1/C(C)=C/CC/C(C)=C/[C@]3(C)C=C(C)[C@H](C)C[C@]34OC(=O)C(=C4O)C(=O)[C@@]21C`: the IC50 was 0.5 µM in the data set on Enterococcus faecalis; 1.6 µM in the data set on Staphylococcus aureus [1]; 1.4 µM with Staphylococcus aureus [2]; 0.2 µM with Staphylococcus aureus [3]; 1.6 µM in the data set on Enterococcus faecium.

`COc1cc(C)c(C(=O)N[C@@H]2[C@@H](C)O[C@@H](O[C@H]3CC[C@H](C)[C@@H]4[C@@H]3C=C(C)[C@H]3/C(C)=C/CC/C(C)=C/[C@@H]5C=C(C(=O)O)[C@H](C)C[C@]56OC(=O)C(=C6O)C(=O)[C@@]43C)[C@H](O)[C@]2(C)O)c(O)c1`: the 50% inhibitory concentration (IC50) was 5.7 µM in the data set with Enterococcus faecalis; 4.4 µM in the data set on Staphylococcus aureus [1]; 1.9 µM in the data set with Staphylococcus aureus [2]; greater than 30 µM in the data set on Escherichia coli; 6.4 µM in the data set on Staphylococcus aureus [3]; 5.2 µM in the data set on Enterococcus faecium. Moreover, the IC50 (in data set [6]; in the data set on Candida albicans) was greater than 30 µM each time. The concentration for half-maximal inhibition (IC50) at 48 h in [4] and in data set [5] was greater than 30 µM each time.

For `CN[C@H](CC(C)C)C(=O)N[C@H]1C(=O)N[C@@H](CC(N)=O)C(=O)N[C@H]2C(=O)N[C@H]3C(=O)N[C@H](C(=O)N[C@H](C(=O)O)c4cc(O)cc(O)c4-c4cc3ccc4O)[C@H](O)c3ccc(c(Cl)c3)Oc3cc2cc(c3O[C@@H]2O[C@H](CO)[C@@H](O)[C@H](O)[C@H]2O[C@H]2C[C@](C)(N)[C@H](O)[C@H](C)O2)Oc2ccc(cc2Cl)[C@H]1O` [VANCOMYCIN], the IC50 was less than 10 µM in the data set on Enterococcus faecalis and greater than 10 µM with Enterococcus faecium.

As for `CC(=O)O[C@H]1CC[C@H](C)[C@@H]2[C@@H]1C=C(C)[C@H]1/C(C)=C/CC/C(C)=C/[C@]3(C)C=C(C)[C@H](C)C[C@]34OC(=O)C(=C4O)C(=O)[C@@]21C`, the IC50 in the data set on Enterococcus faecalis was 3.7 µM; with Staphylococcus aureus [1] it was 1.1 µM; with Staphylococcus aureus [2] it was 0.9 µM; in the data set on Escherichia coli, greater than 30 µM; in the data set with Staphylococcus aureus [3], 1.2 µM; in the data set with Enterococcus faecium, 10 µM. Moreover, the IC50 (in data set [6]; in the data set on Candida albicans) was greater than 30 µM throughout. Besides, the IC50 at 48 h in data set [4] and in data set [5] was greater than 30 µM each time.

Turning to `CC(=O)O[C@H]1CC[C@H](C)[C@@H]2[C@@H]1C=C(C)[C@H]1/C(C)=C/CC/C(C)=C/[C@]3(C)C=C(C(=O)O)[C@H](C)C[C@]34OC(=O)C(=C4O)C(=O)[C@@]21C`, the concentration for half-maximal inhibition (IC50) in the data set with Enterococcus faecalis, in the data set on Staphylococcus aureus [1], in the data set with Staphylococcus aureus [2], in the data set with Staphylococcus aureus [3] and in the data set on Enterococcus faecium was greater than 30 µM each time.

As for `CC1=C[C@H]2[C@@H]([C@@H](C)CC[C@@H]2O)[C@]2(C)C(=O)C3=C(O)[C@@]4(C[C@@H](C)C(C(=O)O)=C[C@H]4/C=C(\C)CC/C=C(\C)[C@H]12)OC3=O`, the IC50 with Enterococcus faecalis, in the data set on Staphylococcus aureus [1], with Staphylococcus aureus [2], in the data set on Staphylococcus aureus [3] and with Enterococcus faecium was greater than 30 µM throughout.

Consider `COc1cc(C)c(C(=O)O[C@H]2[C@@H](O)[C@H](O[C@H]3CC[C@H](C)[C@@H]4[C@@H]3C=C(C)[C@H]3/C(C)=C/CC/C(C)=C/[C@]5(C)C=C(C(=O)O)[C@H](C)C[C@]56OC(=O)C(=C6O)C(=O)[C@@]43C)O[C@H](C)[C@H]2O)c(O)c1`, for which the IC50 in the data set on Enterococcus faecalis was 4 µM; in the data set on Staphylococcus aureus [1] it was 7.3 µM; in the data set on Staphylococcus aureus [2], 12.2 µM; with Escherichia coli, greater than 30 µM; with Staphylococcus aureus [3], 23.2 µM; in the data set on Enterococcus faecium, 13.1 µM. Moreover, the IC50 (in data set [6]; in the data set on Candida albicans) was greater than 30 µM in each case. In addition, the IC50 at 48 h in [4] and in data set [5] was greater than 30 µM each time.

Consider `CC(=O)O[C@H]1CC[C@H](C)[C@@H]2[C@@H]1C=C(C)[C@H]1/C(C)=C/CC/C(C)=C/[C@@H]3C=C(C)[C@H](C)C[C@]34OC(=O)C(=C4O)C(=O)[C@@]21C`, for which the IC50 in the data set on Enterococcus faecalis is 3 µM; in the data set with Staphylococcus aureus [1], 0.3 µM; in the data set on Staphylococcus aureus [2] it was 6.8 µM; in the data set on Escherichia coli, greater than 30 µM; in the data set with Staphylococcus aureus [3], 0.8 µM; in the data set with Enterococcus faecium, 6.7 µM. The IC50 (in data set [6]; in the data set with Candida albicans) was greater than 30 µM each time. Also, the IC50 at 48 h in [4] and in [5] was greater than 30 µM throughout.

As to `COc1cc(C)c(C(=O)N[C@@H]2[C@@H](C)O[C@@H](O[C@H]3CC[C@H](C)[C@@H]4[C@@H]3C=C(C)[C@H]3/C(C)=C/CC/C(C)=C/[C@]5(C)C=C(C(=O)O)[C@H](C)C[C@]56OC(=O)C(=C6O)C(=O)[C@@]43C)[C@H](O)[C@]2(C)O)c(O)c1`, the IC50 with Enterococcus faecalis is 7.3 µM; in the data set on Staphylococcus aureus [1] it was 9.1 µM; with Staphylococcus aureus [2], 2.2 µM; in the data set with Escherichia coli it was greater than 30 µM; in the data set with Staphylococcus aureus [3], 11.9 µM; with Enterococcus faecium, 9.5 µM. Further, the IC50 (in data set [6]; in the data set with Candida albicans) was greater than 30 µM in each case. Further, the IC50 at 48 h in data set [4] and in data set [5] was greater than 30 µM throughout.

In the case of `CCCCCCCCCCCC(=O)O[C@H]1CC[C@H](C)[C@@H]2[C@@H]1C=C(C)[C@H]1/C(C)=C/CC/C(C)=C/[C@]3(C)C=C(C)[C@H](C)C[C@]34OC(=O)C(=C4O)C(=O)[C@@]21C`, the IC50 with Enterococcus faecalis, with Staphylococcus aureus [1], in the data set with Staphylococcus aureus [2], with Staphylococcus aureus [3] and in the data set on Enterococcus faecium was greater than 30 µM throughout.

Consider `CC1=C[C@H]2[C@@H]([C@@H](C)CC[C@@H]2O[C@@H]2O[C@H](C)[C@@H](O)[C@@H](O)[C@H]2O)[C@]2(C)C(=O)C3=C(O)[C@@]4(C[C@@H](C)C(C(=O)O)=C[C@@]4(C)/C=C(\C)CC/C=C(\C)[C@H]12)OC3=O`, for which the IC50 in the data set on Enterococcus faecalis, in the data set with Staphylococcus aureus [1], with Staphylococcus aureus [2], in the data set on Staphylococcus aureus [3] and with Enterococcus faecium was greater than 30 µM throughout.

As to `COc1cccc(OC)c1C(=O)N[C@@H]1C(=O)N2[C@@H]1SC(C)(C)[C@@H]2C(=O)O` [METHICILLIN], the IC50 is greater than 10 µM with Staphylococcus aureus [1], greater than 10 µM with Staphylococcus aureus [2] and less than 10 µM in the data set with Staphylococcus aureus [3].

As for `CC(=O)O[C@H]1CC[C@H](C)[C@@H]2[C@@H]1C=C(C)[C@H]1/C(C)=C/CC/C(C)=C/[C@@H]3C=C(C(=O)O)[C@H](C)C[C@]34OC(=O)C(=C4O)C(=O)[C@@]21C`, the IC50 with Enterococcus faecalis, with Staphylococcus aureus [1], with Staphylococcus aureus [2], in the data set on Staphylococcus aureus [3] and in the data set with Enterococcus faecium was greater than 30 µM throughout.

As to `CC1=C[C@H]2[C@@H]([C@@H](C)CC[C@@H]2O)[C@]2(C)C(=O)C3=C(O)[C@@]4(C[C@@H](C)C(C(=O)O)=C[C@@]4(C)/C=C(\C)CC/C=C(\C)[C@H]12)OC3=O`, the IC50 in the data set with Enterococcus faecalis, with Staphylococcus aureus [1], in the data set on Staphylococcus aureus [2], in the data set on Staphylococcus aureus [3] and with Enterococcus faecium was greater than 30 µM throughout.

The record behind these values is ChEMBL document CHEMBL5143711, “Glenthmycins A-M: Macrocyclic Spirotetronate Polyketide Antibacterials from the Australian Pasture Plant-Derived Streptomyces sp. CMB-PB041” (J Nat Prod, 2022).
